How the values were obtained:
RNA-binding protein 4 = target: T1, RNA-binding protein 4 (Homo sapiens, UniProt Q9BWF3); assay: MS-CETSA in normal BJ cell lysates; settings: lysate, 100 μM compound
T1 construct: After collecting data covering >8,000 proteins in lysates of normal BJ cells; endogenous in cells; host or cells: normal BJ cells, lysate
Procedure: (§1) Target identification was performed by cellular thermal shift assay (CETSA) coupled with quantitative mass spectrometry. In brief, normal BJ cells were lysed by combination of freeze/thaw and mechanical shearing with needle in buffer [50 mM HEPES (pH 7.5), 5 mM β-glycerophosphate, 0.1 mM Sodium Vanadate, 10 mM MgCl2, 1 mM TCEP and 1× Protease inhibitor Cocktail]. The cell debris was removed by centrifugation at 20,000 g for 20 min at 4° C. […] Each lysate was divided into 10 aliquots for heat treatment at the respective temperatures for 3 min in a 96-well thermocycler, followed by 3 min at 4° C. The lysate was centrifuged at 20,000 g for 20 min at 4° C. and the supernatant was transferred into microtubes for MS sample preparation.
(§2) After lysis, at least 100 μg of the protein (measured with a BCA assay) was subjected to reduction, denaturation and alkylation. Samples were subsequently incubated with sequencing grade LysC (Wako) and trypsin (Promega) for digestion overnight at 37° C. The digested samples were dried using a centrifugal vacuum evaporator, solubilized in 100 mM TEAB. […]
(§3) Proteins for which a low temperature plateau was not present were deleted using a cut off >0.85 for the average reading of the first three temperature points (in our experience proteins melting already at −37° C. are more prone to give false positives in a shift analysis).

normal BJ cells = assay: BrdU incorporation / cell growth arrest; type: cell-based, human
Procedure: Cell death was assessed via Annexin V and/or PI (propidium iodide) staining according to the manufacturer's instructions (eBioscience). Cell growth arrest was assessed by direct measurement of DNA synthesis through incorporation of the nucleoside analog bromodeoxyuridine (BrdU). Briefly, BrdU (30 μM, Sigma-Aldrich) was added for 2 h before harvesting cells. Cells were subsequently stained with Pacific Blue-conjugated BrdU antibody (Invitrogen) for 1 h followed by PI staining. Stained cells were analyzed by MACSQuant (MACS). Three independent experiments were performed in triplicate. The percentage of Annexin V/PI- or BrdU-positive cells was quantified using Flow Jo software (Becton Dickinson). Where indicated, the combined activity of caspase-3/7 was determined using the caspase-Glo 3/7 Assay Kit (Promega) and normalized to the number of viable cells as determined by MTT assay.

[1] = test system: Ras-driven glioma initiating cells (GICs); assay: Sphere formation assay; type: cell-based, murine; settings: 5 μM, 7 days
Procedure: Murine glioma-initiating cells (GICs) were established and cultured as described previously (Saga, I. et al., Neuro. Oncol. 16: 1048-1056 (2014)). Briefly, Ink4a/Arf-null neural stem/progenitor cells were transduced with human H-RasV12 and DsRed and propagated in serum-free Dulbecco modified Eagle medium (DMEM)/F12 (Sigma-Aldrich) supplemented with recombinant epidermal growth factor (EGF; PeproTech) and basic fibroblast growth factor (PeproTech) at 20 ng/ml, heparan sulfate (Sigma-Aldrich) at 200 ng/ml and B27 supplement without vitamin A (Invitrogen, Carlsbad, Calif.). GICs were dissociated and plated in 96-well plates at a density of 100 cells/well. […] Three plates were prepared for each treatment group, and 30 wells were quantified per plate. Images were acquired on a BZ-X700 inverted fluorescence microscope (Keyence). Quantification was performed by Nikon NIS-element software (n=90).

human cancer cell lines = assay: MTT cytotoxicity test, panel of human cancer cell lines; type: cell-based; settings: mean over panel of human cancer cell lines; MTT 72 h
Ras/Raf/MEK/ERK pathway = assay: Immunoblot of ERK phosphorylation; type: cell-based, human; settings: normal BJ cells, 24 h
Procedure: Total cell lysates were prepared with 1% triton lysis buffer [25 mM Tris HCl (pH 8.0), 150 mM NaCl, 1% triton-X100, 1 mM dithiothreitol (DTT), protease inhibitor mix (Complete Mini, Roche) and phosphatase inhibitor (PhosphoStop, Roche)] and subjected to SDS-PAGE. The following antibodies were used for immunoblotting: anti-β-actin (Sigma-Aldrich), anti-cleaved PARP (Abcam, #ab32064), anti-PI5P4Kα (#5527), anti-PI5P4Kβ (#9694), anti-cleaved caspase-3 (#9664), anti-pHistone H3(Ser10) (#3377), anti-pAkt(S473) (#9271), anti-pAkt(T308) (#13038), anti-total Akt (#9272), anti-p70S6K(T389) (#9234), anti-total p70S6K (#9202), anti-pErk (#4370), anti-γ-Histone H2AX (#9718) (Cell signaling) and anti-PIK3IP1 (Proteintech, #16826-1-AP). The secondary antibodies used were sheep anti-mouse IgG HRP and donkey anti-rabbit IgG HRP (Amersham; 1:2000 dilution). Immunoreactive proteins were visualized using ECL reagent (Amersham). Where indicated, intensities of protein bands were quantified by densitometry (Odyssey V3.0), normalized to their loading controls and then calculated as fold expression change relative to DMSO control.

HT29 = assay: MTT cytotoxicity test (GI50); type: cell-based; settings: Homo sapiens, HT-29; HT29, cancer, colon; MTT 72 h
SNU449 = assay: MTT cytotoxicity test (GI50); type: cell-based; settings: Homo sapiens, SNU-449; SNU449, cancer, liver; MTT 72 h
U2OS = assay: MTT cytotoxicity test (GI50); type: cell-based; settings: Homo sapiens, cancer, others, bone, MTT 72 h
[2] = target: T2, RNA-binding motif, single-stranded-interacting protein 1 (Homo sapiens, UniProt P29558); assay: MS-CETSA in normal BJ cell lysates; settings: Uniprot B4DN88, lysate, 100 μM compound
T2 construct: After collecting data covering >8,000 proteins in lysates of normal BJ cells; endogenous in cells; host or cells: normal BJ cells, lysate
T2 sequence (P29558 whole entry): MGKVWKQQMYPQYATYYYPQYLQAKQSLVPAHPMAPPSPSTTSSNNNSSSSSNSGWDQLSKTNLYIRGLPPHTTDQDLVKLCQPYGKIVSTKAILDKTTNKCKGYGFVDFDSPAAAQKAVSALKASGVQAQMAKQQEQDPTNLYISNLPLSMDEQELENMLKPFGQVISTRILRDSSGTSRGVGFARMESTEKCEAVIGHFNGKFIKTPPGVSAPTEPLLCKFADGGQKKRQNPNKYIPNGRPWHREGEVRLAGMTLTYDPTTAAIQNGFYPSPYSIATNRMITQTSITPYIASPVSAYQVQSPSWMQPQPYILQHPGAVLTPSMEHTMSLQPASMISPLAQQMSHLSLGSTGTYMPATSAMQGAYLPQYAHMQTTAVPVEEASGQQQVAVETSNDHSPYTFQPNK
Procedure: as §1, §2, §3

IMR90 = assay: MTT cytotoxicity test (GI50); type: cell-based; settings: Homo sapiens, IMR-90; IMR90, normal, lung; MTT 72 h
PIK3IP1 = assay: qRT-PCR and immunoblot of PIK3IP1 in BJ cells; type: cell-based, human; settings: 5 μM, 24 h
Procedure: Total RNA was isolated from cultured cells using the RNeasy mini kit (Qiagen). cDNA was synthesized from 1 μg of total RNA using the iScript cDNA synthesis kit (Bio-Rad). qRT-PCR analysis was performed using the iQ SYBR Green Super mix (Bio-Rad) using the following gene-specific primers:
human PI5P4Kα (5′-[…]-3′; SEQ ID NO: 11, 5′-[…]-3′; SEQ ID NO: 12), human PI5P4Kβ (5′-[…]-3′; SEQ ID NO: 13, 5′-[…]-3′; SEQ ID NO: 14), human PI5P4Kγ (5′-[…]-3′; SEQ ID NO: 15, 5′-[…]-3′; SEQ ID NO: 16) and human PIK3IP1 (5′-[…]-3′; SEQ ID NO: 17, 5′-[…]-3′; SEQ ID NO: 18). The TATA-binding protein (TBP) gene was used for normalization. All PCR reactions were performed in triplicate.
Total cell lysates were prepared with 1% triton lysis buffer [25 mM Tris HCl (pH 8.0), 150 mM NaCl, 1% triton-X100, 1 mM dithiothreitol (DTT), protease inhibitor mix (Complete Mini, Roche) and phosphatase inhibitor (PhosphoStop, Roche)] and subjected to SDS-PAGE. […] Where indicated, intensities of protein bands were quantified by densitometry (Odyssey V3.0), normalized to their loading controls and then calculated as fold expression change relative to DMSO control.

[3] = target: T3, Arsenite methyltransferase (Homo sapiens, UniProt Q9HBK9); assay: MS-CETSA in normal BJ cell lysates; type: binding; settings: lysate, 100 μM compound
T3 construct: After collecting data covering >8,000 proteins in lysates of normal BJ cells; endogenous in cells; host or cells: normal BJ cells, lysate
T3 sequence (Q9HBK9 whole entry): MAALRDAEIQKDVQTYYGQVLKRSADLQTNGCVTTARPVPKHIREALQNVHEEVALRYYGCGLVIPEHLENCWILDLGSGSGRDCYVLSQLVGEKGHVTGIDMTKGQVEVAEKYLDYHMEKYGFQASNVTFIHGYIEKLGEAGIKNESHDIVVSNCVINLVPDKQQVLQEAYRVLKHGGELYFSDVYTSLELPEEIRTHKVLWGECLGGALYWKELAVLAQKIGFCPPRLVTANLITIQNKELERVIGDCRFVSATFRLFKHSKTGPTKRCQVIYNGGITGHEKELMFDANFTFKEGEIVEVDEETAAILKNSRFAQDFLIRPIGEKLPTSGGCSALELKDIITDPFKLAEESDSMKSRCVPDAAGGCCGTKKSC
Procedure: as §1, §2, §3

ARPE-19 = assay: MTT cytotoxicity test (GI50); type: cell-based; settings: Homo sapiens; ARPE-19, normal, retina; MTT 72 h
Huh7 = assay: MTT cytotoxicity test (GI50); type: cell-based; settings: Homo sapiens, Huh-7; Huh7, cancer, liver; MTT 72 h

T1 sequence (Q9BWF3 whole entry): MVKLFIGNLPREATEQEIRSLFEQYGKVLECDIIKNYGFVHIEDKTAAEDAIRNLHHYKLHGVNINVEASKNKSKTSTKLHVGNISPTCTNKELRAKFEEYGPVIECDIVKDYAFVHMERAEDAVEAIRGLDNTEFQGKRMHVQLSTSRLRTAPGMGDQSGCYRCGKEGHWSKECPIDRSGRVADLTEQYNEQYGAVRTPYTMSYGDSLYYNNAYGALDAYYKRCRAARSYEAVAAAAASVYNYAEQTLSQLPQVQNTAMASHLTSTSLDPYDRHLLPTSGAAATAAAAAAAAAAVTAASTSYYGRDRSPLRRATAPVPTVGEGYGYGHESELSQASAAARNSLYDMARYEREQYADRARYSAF

SMILES: N#C/C(=C\c1cccc2cnccc12)c1c[nH]c2ccccc12 [a131, (Z)-2-(1H-indol-3-yl)-3-(5-isoquinolyl)prop-2-enenitrile]
- ED score (RNA-binding protein 4): 0.3323
- ΔTm at 100 µM (RNA-binding protein 4; read-out: mean Delta Tm): 1.88 °C
- cell cycle arrest (BrdU incorporation) (normal BJ cells; 2.5 μM, 48 h): arrested normal BJ cells at the G1/S phase of the cell cycle with few BrdU incorporation
- reversibility of growth arrest after drug removal (normal BJ cells; 5 μM for 2 or 4 days, then fresh media up to 11 days): transient and reversible after a131 removal
- growth of GICs in tumor spheroid culture [1]: significantly suppressed growth
- GI50 (human cancer cell lines): 1700 nM
- inhibition of the Ras/Raf/MEK/ERK pathway (ERK phosphorylation) (Ras/Raf/MEK/ERK pathway): Neither a131 and a166 treatment nor PI5P4Ks knockdown inhibited
- GI50 (HT29): 900 nM
- GI50 (SNU449): 2300 nM
- GI50 (U2OS): 1500 nM
- ED score [2]: 0.3144
- ΔTm at 100 µM ([2]; read-out: mean Delta Tm): 2.01 °C
- GI50 (IMR90): 5800 nM
- PIK3IP1 mRNA and protein levels (PIK3IP1; normal BJ cells): up-regulation of PIK3IP1 at both the mRNA and protein levels
- PIK3IP1 mRNA expression (PIK3IP1; transformed BJ cells): unresponsive
- ED score [3]: 0.6214
- ΔTm at 100 µM ([3]; read-out: mean Delta Tm): 4.88 °C
- GI50 (ARPE-19): > 10000 nM
- GI50 (Huh7): 1200 nM

Source: patent US20190350964A1, “ANTI-CANCER COMPOUNDS AND USES THEREOF” (NATIONAL UNIVERSITY OF SINGAPORE, priority 2016, published 2019)
